Experimental data reported in US12102631B2, “Quinolylnitrones for the treatment and prevention of a cerebral stroke or ischaemia” (ISQUAEMIA BIOTECH, S.L., priority 2018, dated 2024).

Experiments:
[1] = tested on: global cerebral ischemia in Wistar rats; assay: Neuronal death by Fluoro-Jade B staining after global cerebral ischemia; type: in vivo; conditions: R5 d
Protocol: (§1) Animal model of global cerebral ischemia, experimental design and administration of nitrones. Transient forebrain ischemia was induced in adult male Wistar rats (10-12 weeks, Charles River) by the standard four-vessel occlusion model (4V0) previously described.^44,56 Briefly, both vertebral arteries were irreversibly occluded by electrocoagulation under anesthesia with a mixture of atropine, ketamine and diazepam (0.25, 62.5, and 5 mg/kg, respectively) delivered by intraperitoneal injection. After 24 h, ischemia was induced by carotid occlusion with atraumatic clips for 15 min and then clips were removed from the carotid arteries to allow reperfusion. Body temperature of 37° C. was maintained. The animals were studied after 5 days of reperfusion (R5 d). We performed a power analysis (http://www.biomath.info/power/ttest.htm) to determine the sample size. We chose the significant level at 0.05, the power set at 0.8 (80%), and a ratio of control/treated group of 2:1, and the sample size obtained was 10 subjects per control group and <6 subjects per treated group. A total of 26 ischemic animals were used for the study of nitrone 23 efficacy. Here 6 animals were treated with 1.5 mg/kg of nitrone 23, or 40 mg/kg of compound 2, and 14 animals were included in control (vehicle) group, two of which died after 2 days. The treatments were performed with allocated concealment, assigning a random order to each vehicle or treated animal by computer-generated randomization program. […]
Neuronal death evaluation. Neuronal death was evaluated by Fluoro-Jade-B staining. Brain cryosections (10 μm thick) from ischemic animals that underwent reperfusion for 5 days were used after fixation to detect neuronal death by Fluoro-Jade-B staining,^44 and visualized by fluorescence microscopy. Labeled (dead) neuronal cells (in green) were counted as in TUNEL assay (see below). Data from different animals of each experimental group were independently analyzed by two observers, and treatment information was blindly performed throughout the study. […]

[2] = tested on: global cerebral ischemia in Wistar rats; assay: Neurological deficit score after transient global cerebral ischemia (four-vessel occlusion); type: in vivo; conditions: 5 days of reperfusion, vehicle 3.3±0.21
Protocol: as §1, with “group.” for “group. A total of 26 ischemic animals were used for the study of nitrone 23 efficacy. Here 6 animals were treated with 1.5 mg/kg of nitrone 23, or 40 mg/kg of compound 2, and 14 animals were included in control (vehicle) group, two of which died after 2 days. The treatments were performed with allocated concealment, assigning a random order to each vehicle or treated animal by computer-generated randomization program.”
Animals were subjected to 15 min of cerebral ischemia, treated with vehicle or QN 23 at the onset of reperfusion period, and studied after 5 days of reperfusion (R5 d). We evaluated the neurological deficit score (NDS) to assess the effect of QN 23 following global ischemia-reperfusion in R5 d animals. […]

[3] = tested on: global cerebral ischemia in Wistar rats; assay: Neuronal apoptosis by TUNEL assay after global cerebral ischemia; type: in vivo; conditions: R5 d
Protocol: as §1, with “program. Ischemic animals were treated with nitrone 23 diluted in 10% ethanol in saline as vehicle by intraperitoneal injection when the carotid arteries were unclamped for reperfusion.” for “program.”
TUNEL assay. Apoptotic neurons within brain sections were detected using the Terminal deoxynucleotidyl transferase-mediated dUTP Nick-End Labeling (TUNEL) assay (Promega). […]
The hippocampal CA1 subfield and cerebral and lateral cortex fields from a given section were analyzed with fluorescence microscopy (40× objective) to count the number of apoptotic nuclei (green). […]

[4] = tested on: Carrageenan-induced rat paw edema; assay: Inhibition of Carrageenan-induced rat paw edema; type: in vivo, Fisher 344 rats; conditions: 0.01 mmol/kg intraperitoneally; 3.5 h after Carrageenan
Protocol: Inhibition of the Carrageenan-induced edema. Edema was induced in the right hind paw of Fisher 344 rats (150-200 g) by the intradermal injection of 0.1 mL 2% Carrageenan in water. Both sexes were used. Females pregnant were excluded. Each group was composed of 6 animals. The experiment was performed twice for validation. The animals, which have been bred in our laboratory, were housed under standard conditions and received a diet of commercial food pellets and water ad libitum during the maintenance, but they were entirely fasted during the experiment period. Nitrone 23 as well as of the standard drug indomethacin in 0.01 mmol/kg body weight, were diluted in water with few drops of Tween 80 and ground in a mortar before use and they were given intraperitoneally simultaneously with the Carrageenan injection. The rats were euthanized 3.5 h after Carrageenan administration. The difference between the weight of the injected and uninjected paws was calculated for each animal. The change in paw weight was compared with that in control animals (treated with water/or Tween-water) and expressed as a percent inhibition of the edema % ICPE values (Table 2). Values % ICPE are the mean from two different experiments (n=6 animals each time) with a standard error of the mean less than 10%.

[5] = 1.5 mg/kg i.p., compared with vehicle

## CC(C)(C)/[N+]([O-])=C/c1ccc(S(=O)(=O)O)cc1S(=O)(=O)O [Compound 2, sodium (Z)-4-((tert-butyloxidoazanylidene)methyl)benzene-1,3-disulfonate, reference compound]
[1]; 40 mg/kg
  effect on neuronal death, CA1 and cortical regions (in words): did not produce a significant effect
[2]; 40 mg/kg
  neurological deficit score (NDS): 2.5±0.28
[3]; 40 mg/kg
  effect on neuronal apoptosis (in words): induced a decrease of neuronal apoptosis, although it was not significant

## COc1ccc2nc(Cl)c(/C=[N+](\[O-])C(C)(C)C)cc2c1 [Compound 23, (Z)—N-tert-Butyl-1-(2-chloro-6-methoxyquinolin-3-yl)methanimine oxide]
[1]; [5]
  decrease of neuronal death, CA1 region: 33%
  decrease of neuronal death, cortical region: 90%
[2]; 1.5 mg/kg i.p. at onset of reperfusion
  neurological deficit score (NDS): 2.0±0.44
[3]; 1.5 mg/kg
  decrease of neuronal apoptosis, CA1 region: 39%
  decrease of neuronal apoptosis, cerebral cortex: 84%
[4]
  ICPE %: 48.5 ± 0.8 %
